Entries after “also recorded” stand apart in the source; their conditions may differ. Read-outs that look alike come from different tables or passages of the source.
Experiments:
[1] = tested on: MDA-MB-468 triple negative breast cancer tumor model; assay: MDA-MB-468 triple negative breast cancer tumor model, tumor growth inhibition; assay type: in vivo; conditions: Azenosertib alone, 60 mg/kg
Procedure: In vivo exploration of dose and schedule of Azenosertib and PARPi (niraparib, talazoparib) including exploration of alternating dosing was evaluated.

[2] = tested on: human ovarian cancer SKOV3; assay: Human ovarian cancer SKOV3 animal model, tumor volume; assay type: in vivo; conditions: 80 mg/kg 3 cycles 5 days on/2 days off vs continuous 60 mg/kg, 21 days
Procedure: In an exemplary human ovarian cancer SKOV3 animal model, Azenosertib was administered at a continuous dose of 60 mg/kg or at an intermittent dosing of 80 mg/kg at 3 cycles of 5 days on/2 days off (5/2).

[3] = tested on: breast ductal carcinoma HCC1569; assay: Breast ductal carcinoma HCC1569 model, tumor volume; assay type: in vivo, human
Procedure: In an exemplary breast ductal carcinoma HCC1569 model, Azenosertib was administered at a dose of about 100 mg/kg at intermittent dosing regimen of 3 cycles of 4 days on/3 days off (4/3) and 3 days on/4 days off (3/4) and compared with a lower continuous dose (e.g., 60 mg/kg). Tumor volume change was plotted in FIG. 1G and corresponding change in body weight in FIG. 1H until about 24 days post-initiation of treatment.

Wee1 = target: T1, Wee1 (Homo sapiens, UniProt P30291); assay: PK/PD correlation, Wee1 target engagement (p-CDK1 in skin biopsies); assay type: in vivo
T1 construct: from tissue; host or cells: skin biopsies of treated subjects
T1 sequence (P30291 whole entry): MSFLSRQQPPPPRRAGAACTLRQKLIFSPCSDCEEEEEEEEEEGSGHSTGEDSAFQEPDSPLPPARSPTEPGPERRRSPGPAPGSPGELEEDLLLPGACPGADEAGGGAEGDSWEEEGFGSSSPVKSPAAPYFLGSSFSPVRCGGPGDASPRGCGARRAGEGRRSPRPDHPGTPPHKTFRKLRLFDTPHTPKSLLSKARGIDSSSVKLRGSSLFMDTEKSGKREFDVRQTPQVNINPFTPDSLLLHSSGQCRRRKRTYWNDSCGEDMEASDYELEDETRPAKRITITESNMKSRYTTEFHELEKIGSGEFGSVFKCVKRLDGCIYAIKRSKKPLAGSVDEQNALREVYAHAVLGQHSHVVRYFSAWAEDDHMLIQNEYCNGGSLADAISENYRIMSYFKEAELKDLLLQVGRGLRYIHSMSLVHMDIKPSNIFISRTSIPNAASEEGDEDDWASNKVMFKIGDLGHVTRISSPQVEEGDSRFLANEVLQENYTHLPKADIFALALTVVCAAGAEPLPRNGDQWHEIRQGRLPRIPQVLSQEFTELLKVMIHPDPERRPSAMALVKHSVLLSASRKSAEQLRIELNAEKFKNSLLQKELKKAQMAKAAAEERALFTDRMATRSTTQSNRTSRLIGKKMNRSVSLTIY
Text: CDK1 phosphorylation (pCDK-1) is mediated by Wee1. It is contemplated that Wee1 inhibition by Azenosertib results in pCDK1 inhibition.

Half-life of Azenosertib = assay type: in vivo; conditions: plasma
[4] = Phase 1 Azenosertib monotherapy study, PK, safety and RP2D; assay type: in vivo, human
Procedure: In this example, a Phase 1a dose escalation and Phase 1b dose expansion clinical study was carried out to evaluate the safety and pharmacokinetics (PK), i.e. steady state exposure (AUC0-24) and concentration maximum (Cmax) of Azenosertib monotherapy.
In some cohorts, a phase 1a dose escalation was carried out starting at doses below 200 mg, escalating to 200 mg, 300 mg, 350 mg, 400 mg, and 450 mg total daily dose in continuous dosing regimen. The dose used in Phase 1b was 300 mg QD.
In some cohorts, a phase 1a dose escalation was carried out starting at doses of 350 mg, 400 mg, 450 mg and 500 mg total daily dose at a 5:2 or 4:3 dosing regimen. The doses used in Phase 1b were 350 mg and 400 mg at 5:2 dosing regimen.
In this example, a Phase 1 Azenosertib dose optimization study was carried out to evaluate the recommended phase II dose (RP2D) of Azenosertib monotherapy.
A total of 127 heavily pretreated subjects with advanced solid tumors were treated with Azenosertib monotherapy at ascending dose levels of either continuous daily dosing or intermittent weekly administration schedules. Across all tumor types, 74 subjects were treated with continuous dosing schedules and 53 subjects were treated with intermittent dosing schedules.

[5] = tested on: non-small cell lung carcinoma (NSCLC) A427; assay: Non-small cell lung carcinoma (NSCLC) A427 model, tumor volume and body weight; assay type: in vivo, human
Procedure: In an exemplary non-small cell lung carcinoma (NSCLC) A427 model, Azenosertib was administered at a higher intermittent dose than a corresponding lower continuous dose. For example, Azenosertib was administered at 56 mg/kg in 4 dosing cycles of 5 days on/2 days off (5/2) and compared with a lower continuous dose of 40 mg/kg. Similarly, 112 mg/kg of Azenosertib in 4 dosing cycles of 5 days on/2 days off was compared with a lower continuous dose of 80 mg/kg.
The tumor volume was measured (FIG. 1C) as well as body weight (FIG. 1D) for 28 days post initiation of treatment.
In an exemplary non-small cell lung carcinoma (NSCLC) A427 model, Azenosertib was administered at a higher intermittent dose than a corresponding lower continuous dose. For example, Azenosertib was administered at 100 mg/kg in 4 dosing cycles of 4 days on/3 days off (4/3) and compared with a lower continuous dose of 60 mg/kg.
Change in tumor volume over 25 days post tumor initiation is shown in FIG. 1E, while corresponding change in body weight during treatment is shown in FIG. 1F.

[6] = Clinical exposure (plasma PK) with continuous and intermittent 5/2 dosing; assay type: in vivo, human; conditions: for Cmax / Tmax / AUC: human, plasma, oral; for AUC: read-out: AUC24
Procedure: This example illustrates the clinical exposure achieved with a continuous and an intermittent 5 days on/2 days off (5/2) dosing regimen. A comparison is also made between a once daily dosing regimen and a twice daily dosing regimen. In some embodiments, Azenosertib was administered with food and/or antiemetic agents.
The results are shown as follows: FIG. 5A is a graph of Azenosertib plasma concentration from subjects receiving a 5/2 350 mg once daily or 175 mg twice daily on day 1, cycle 1. FIG. 5B is a graph of Azenosertib plasma concentration from subjects receiving a 5/2 350 mg once daily or 175 mg twice daily on day 11/12, cycle 1. FIG. 5C is a graph of Azenosertib plasma concentration from subjects receiving a continuous dosing regimen relative to subjects receiving a 5/2 intermittent 350 mg once daily dosing regimen on day 1, cycle 1. FIG. 5D is a graph of Azenosertib plasma concentration from subjects receiving a continuous dosing regimen relative to subjects receiving a 5/2 intermittent 350 mg once daily dosing regimen on day 11/12 or 15 of cycle 1. FIG. 5E is a graph of Azenosertib plasma concentration from subjects receiving a continuous dosing regimen relative to subjects receiving a 5/2 intermittent 175 mg twice daily dosing regimen on day 1, cycle 1. FIG. 5F is a graph of Azenosertib plasma concentration from subjects receiving a continuous dosing regimen relative to subjects receiving a 5/2 intermittent 175 mg twice daily dosing regimen on day 11/12 or 15 of cycle 1.

[7] = 175 mg, 175 twice daily, 5/2, steady state (Day 12/11)
[8] = 175 mg, 175 twice daily, Continuous, mean steady state (Day 12/11)
[9] = 300 mg, 300 once daily, Continuous, mean steady state (Day 12/11)
[10] = 350 mg, 350 once daily, 5/2, mean steady state (Day 12/11)
[11] = 350 mg, 350 once daily, Continuous, mean steady state (Day 12/11)

decrease of p-CDK1 levels (Wee1; dose of greater than about 300 mg once daily): at least 50%
p-CDK1 levels in skin biopsies following treatment relative to baseline (Wee1; skin biopsies): decreases in p-CDK1 levels
half-life (Half-life of Azenosertib): 8 h
Cmax [6, 7]: 1470 ng/mL
Tmax [6, 7]: 1 h
AUC [6, 7]: 13300 ng·h/mL
Cmax [6, 8]: 738 ng/mL
Tmax [6, 8]: 2.3 h
AUC [6, 8]: 10800 ng·h/mL
Cmax [6, 9]: 1090 ng/mL
Tmax [6, 9]: 2.8 h
AUC [6, 9]: 10800 ng·h/mL
Cmax [6, 10]: 1490 ng/mL
Tmax [6, 10]: 3 h
AUC ([6]; 350 mg, 350 once daily, 5/2, steady state (Day 12/11)): 10300 to 15800 ng·h/mL
Cmax [6, 11]: 840 ng/mL
Tmax [6, 11]: 2.2 h
AUC [6, 11]: 7140 ng·h/mL
SMILES: C=CCn1c(=O)c2cnc(Nc3ccc(N4CCN(C)CC4)cc3)nc2n1-c1ccc2c(n1)[C@@](O)(CC)CC2 [Azenosertib, (R)-2-allyl-1-(7-ethyl-7-hydroxy-6,7-dihydro-5H-cyclopenta[b]pyridin-2-yl)-6-((4-(4-methylpiperazin-1-yl)phenyl)amino)-1,2-dihydro-3H-pyrazolo[3,4-d]pyrimidin-3-one]
tumor growth inhibition (TGI) [1]: 52.6%
change in tumor volume, intermittent vs continuous dosing [2]: more efficacious; also recorded: higher efficacy than continuous dosing in reducing tumor volume
tumor volume, intermittent vs continuous dosing ([3]; about 100 mg/kg 3 cycles 4/3 and 3/4 vs continuous 60 mg/kg, about 24 days): more efficacious
efficacy of 4 days on/3 days off vs 3 days on/4 days off ([3]; about 100 mg/kg, 3 cycles): comparable in efficacy
steady state exposure AUC (0-24), intermittent RP2D vs continuous ([4]; 400 mg QD 5/2 compared to 300 mg QD continuous administration): more than doubled
cases of febrile neutropenia and sepsis ([4]; Azenosertib monotherapy including intermittent dosing): no observed cases of febrile neutropenia and sepsis
RP2D as a monotherapy ([4]; daily (QD), 5 days on, 2 days off (5/2) weekly schedule): 400 mg
discontinuations due to TRAEs ([4]; intermittent cohorts): no reported discontinuation; also recorded: No discontinuations due to TRAEs
gastrointestinal, fatigue, and hematologic Grade 3 and 4 treatment-related adverse events (TRAEs) ([4]; intermittent versus continuous dosing): comparable or favorable versus continuous dosing
safety and tolerability, intermittent vs continuous dosing ([4]; monotherapy): improved tolerability
maximal concentration (Cmax) levels, intermittent vs continuous dosing regimen ([4]; monotherapy, Phase 1): higher maximal concentration (Cmax) levels
tumor volume, intermittent vs continuous dosing ([5]; 100 mg/kg 4 cycles 4 days on/3 days off vs continuous 60 mg/kg, 25 days): more efficacious; also recorded: slightly more efficacy than lower continuous dosing
tumor volume, intermittent vs continuous dosing ([5]; 56 or 112 mg/kg 4 cycles 5 days on/2 days off vs continuous 40 or 80 mg/kg, same total cumulative dose, 28 days): more efficacious; also recorded: more efficacy in reducing tumor volume than lower continuous dosing
tolerability (body weight) ([5]; all doses (40, 80 mg/kg continuous; 56, 112 mg/kg 5/2)): well tolerated
exposure, intermittent vs continuous dose ([6]; 350 mg once daily (or 175 mg twice daily), 5/2 vs continuous): higher for intermittent vs. continuous; also recorded: comparable or better exposure

Source: patent US20250262214A1, “INTERMITTENT DOSING REGIMEN FOR AZENOSERTIB IN TREATING CANCER” (Zeno Management, Inc., priority 2022, published 2025)
